Our source for the pest or weed control values is US4243408A, “Herbicidal N-triazolylmethyl-substituted alpha-haloacetanilide” (Chevron Research Company, priority 1978, dated 1981).

Type in all cases: in vivo
The test system of experiment [1] is Crabgrass (Digitaria sanguinalis). Kind of experiment: Pre-Emergent Test, herbicidal effectiveness. The note with it: pre-emergence, 504 h, 33 micrograms per cm^2, 3 weeks, 0-to-100 scale, read-out: Herbicidal Effectiveness, % Control Pre, C. The method in brief:
(§1)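 Herbicidal activity before emergence: spray of an aqueous dilution of an acetone/surfactant compound solution onto seeded soil (33 micrograms/cm^2). Plants grown in the greenhouse; damage judged by physiological observation, with 0 representing no phytotoxicity and 100 complete kill.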

Experiment [2] relates to Lambsquarter (Chenopodium album). Nature of the experiment: Pre-Emergent Test, herbicidal effectiveness. The note with it: pre-emergence, 504 h, 33 micrograms per cm^2, 3 weeks, 0-to-100 scale, read-out: Herbicidal Effectiveness, % Control Pre, L. The method in brief: as §1
The subject of experiment [3] is Mustard (Brassica arvensis). Nature of the experiment: Pre-Emergent Test, herbicidal effectiveness. To be noted: pre-emergence, 504 h, 33 micrograms per cm^2, 3 weeks, 0-to-100 scale. The method in brief:
as §1

Experiment [4] has as its system Pigweed (Amaranthus retroflexus). Kind of experiment: Pre-Emergent Test, herbicidal effectiveness. To be noted: pre-emergence, 504 h, 33 micrograms per cm^2, 3 weeks, 0-to-100 scale, read-out: Herbicidal Effectiveness, % Control Pre, P. The method in brief: as §1
Experiment [5] concerns Watergrass (Echinochloa). Nature of the experiment: Pre-Emergent Test, herbicidal effectiveness. The note with it: pre-emergence, 504 h, 33 micrograms per cm^2, 3 weeks, 0-to-100 scale, read-out: Herbicidal Effectiveness, % Control Pre, W. The method in brief:
as §1

For experiment [6], the system named is Wild Oats (Avena fatua). Kind of experiment: Pre-Emergent Test, herbicidal effectiveness. The note with it: pre-emergence, 504 h, 33 micrograms per cm^2, 3 weeks, 0-to-100 scale, read-out: Herbicidal Effectiveness, % Control Pre, O. The method in brief: as §1
The subject of experiment [7] is Crabgrass (Digitaria sanguinalis). Kind of experiment: Post-Emergent Test, herbicidal effectiveness. The note with it: post-emergence, 504 h, 33 micrograms per cm^2, 3 weeks, 0-to-100 scale, read-out: Herbicidal Effectiveness, % Control Post, C. The method in brief: (§2)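 24-d-old plants, spray 33 micrograms/cm^2 (5000 ppm, acetone/surfactant/water), greenhouse. 3-wk 0–100 score, 100 = kill.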

The subject of experiment [8] is Lambsquarter (Chenopodium album). Kind of experiment: Post-Emergent Test, herbicidal effectiveness. The note with it: post-emergence, 504 h, 33 micrograms per cm^2, 3 weeks, 0-to-100 scale, read-out: Herbicidal Effectiveness, % Control Post, L. The method in brief:
as §2

The subject of experiment [9] is Mustard (Brassica arvensis). Nature of the experiment: Post-Emergent Test, herbicidal effectiveness. To be noted: post-emergence, 504 h, 33 micrograms per cm^2, 3 weeks, 0-to-100 scale. The method in brief:
as §2

For experiment [10], the system named is Pigweed (Amaranthus retroflexus). Nature of the experiment: Post-Emergent Test, herbicidal effectiveness. The note with it: post-emergence, 504 h, 33 micrograms per cm^2, 3 weeks, 0-to-100 scale, read-out: Herbicidal Effectiveness, % Control Post, P. The method in brief:
as §2

The subject of experiment [11] is Watergrass (Echinochloa). Kind of experiment: Post-Emergent Test, herbicidal effectiveness. The note with it: post-emergence, 504 h, 33 micrograms per cm^2, 3 weeks, 0-to-100 scale, read-out: Herbicidal Effectiveness, % Control Post, W. The method in brief: as §2
Experiment [12] concerns Wild Oats (Avena fatua). Kind of experiment: Post-Emergent Test, herbicidal effectiveness. The note with it: post-emergence, 504 h, 33 micrograms per cm^2, 3 weeks, 0-to-100 scale, read-out: Herbicidal Effectiveness, % Control Post, O. The method in brief: as §2

Consider `CSc1nnc(CN(C(=O)CCl)c2c(C)cccc2C)o1` [Compound 24B], for which the pest or weed control at 33 µg/cm2 in experiment [1] was 100%; in experiment [2], 10%; in experiment [3], 10%; in experiment [4] it was 10%; in the experiment on Watergrass (Echinochloa) [5], 100%; in the experiment on Wild Oats (Avena fatua) [6], 85%. Besides, the pest or weed control at 5000 µg/mL, 33 µg/cm2 (in experiment [7]; in [8]; in experiment [9]; in experiment [10]; in the experiment with Watergrass (Echinochloa) [11]; in the experiment with Wild Oats (Avena fatua) [12]) was 0% each time.

Turning to `Cc1nnc(CNc2ccccc2C)[nH]1` [Compound 25A], the pest or weed control at 33 µg/cm2 (in experiment [1]; in experiment [2]; in [3]; in experiment [4]; in the experiment with Watergrass (Echinochloa) [5]; in the experiment with Wild Oats (Avena fatua) [6]) was 0% throughout. Besides, the pest or weed control at 5000 µg/mL, 33 µg/cm2 (in experiment [7]; in experiment [8]; in [9]; in [10]; with Watergrass (Echinochloa) [11]; in the experiment with Wild Oats (Avena fatua) [12]) was 0% each time.

For `Cc1nnc(CN(C(=O)CCl)c2ccccc2C)[nH]1` [Compound 25B], the pest or weed control at 33 µg/cm2 in experiment [1] came to 97%; in [2] it was 100%; in experiment [3] it was 45%; in [4], 70%; in the experiment with Watergrass (Echinochloa) [5], 100%; in the experiment with Wild Oats (Avena fatua) [6], 0%. Moreover, the pest or weed control at 5000 µg/mL, 33 µg/cm2 in experiment [7] came to 0%; in experiment [8], 0%; in experiment [9], 0%; in experiment [10], 0%; with Watergrass (Echinochloa) [11], 40%; in the experiment with Wild Oats (Avena fatua) [12], 0%.

As to `Cc1nnc(CN(C(=O)CCl)c2cccc(C(F)(F)F)c2)[nH]1` [Compound 26B], the pest or weed control at 33 µg/cm2 in experiment [1] came to 0%; in [2] it was 10%; in [3] it was 10%; in experiment [4], 0%; with Watergrass (Echinochloa) [5], 65%; with Wild Oats (Avena fatua) [6], 0%. The pest or weed control at 5000 µg/mL, 33 µg/cm2 (in [7]; in [8]; in experiment [9]; in experiment [10]; in the experiment on Watergrass (Echinochloa) [11]; in the experiment with Wild Oats (Avena fatua) [12]) was 0% each time.

On to `Cc1nnc(CNc2ccc(Cl)c(Cl)c2)[nH]1` [Compound 27A], for which the pest or weed control at 33 µg/cm2 (in [1]; in experiment [2]; in experiment [3]; in experiment [4]; in the experiment on Watergrass (Echinochloa) [5]; in the experiment on Wild Oats (Avena fatua) [6]) was 0% in each case. Moreover, the pest or weed control at 5000 µg/mL, 33 µg/cm2 (in [7]; in [8]; in [9]; in [10]; in the experiment with Watergrass (Echinochloa) [11]; in the experiment with Wild Oats (Avena fatua) [12]) was 0% throughout.

Consider `Cc1nnc(CN(C(=O)CCl)c2ccc(Cl)c(Cl)c2)[nH]1` [Compound 27B], for which the pest or weed control at 33 µg/cm2 (in experiment [1]; in [2]; in [3]; in experiment [4]; with Watergrass (Echinochloa) [5]; with Wild Oats (Avena fatua) [6]) was 0% throughout. The pest or weed control at 5000 µg/mL, 33 µg/cm2 (in experiment [7]; in experiment [8]; in experiment [9]; in experiment [10]; with Watergrass (Echinochloa) [11]; with Wild Oats (Avena fatua) [12]) was 0% in each case.
